From patent US20070244103A1, “Novel Compounds Having an Anti-Bacterial Activity” (Morphochem Aktiengesellschaft Fur Kombinatorische Chemie, priority 2004, published 2007)

Experiment: MIC of the examples against various organisms
Type: cell-based
Details: against at least two of the above organisms (12-strain panel)
Protocol: The MIC (μg/ml) of the examples against various organisms was determined: A. baumannii ATCC19606, E. cloacae ATCC23355, E. coli ATCC25922, K. pneumoniae ATCC27736, P. mirabilis ATCC29906, P. aeruginosa ATCC27853, S. maltophilia ATCC13637, S. aureus ATCC43300, S. epidermidis ATCC14990, S. haemolyticus ATCC29970, E. faecalis ATCC29212 and E. faecium ATC19434.

Row | Structure (SMILES) | MIC [µg/mL]
1 | COc1ccc2nccc(C(O)CN3CCCC(CNCc4ccc5c(c4)OCCO5)C3)c2n1 (single isomer, unassigned) [Example 3, 2-(3-{[(2,3-Dihydro-benzo[1,4]dioxin-6-ylmethyl)-amino]-methyl}-piperidin-1-yl)-1-(6-methoxy-[1,5]-naphthyridin-4-yl)-ethanol] | ≤ 2
2 | COc1ccc2nccc(C(O)CN3CCCC(CNCc4ccc5c(c4)NC(=O)CS5)C3)c2n1 (single isomer, unassigned) [Example 6, 6-[({1-[2-Hydroxy-2-(6-methoxy-[1,5]-naphthyridin-4-yl)-ethyl]-piperidin-3-ylmethyl}-amino)-methyl]-4H-benzo[1,4]thiazin-3-one] | ≤ 2
3 | COc1ccc2nccc(C(O)CN3CCCC(CNC/C=C/c4ccccc4)C3)c2n1 (single isomer, unassigned) [Example 7, 1-(6-Methoxy-[1,5]-naphthyridin-4-yl)-2-{3-[((E)-3-phenyl-allylamino)-methyl]-piperidin-1-yl}-ethanol] | ≤ 2
4 | COc1ccc2nccc(C(O)CN3C4CCC3CC(NCc3ccc5c(c3)NC(=O)CO5)C4)c2n1 (single isomer, unassigned) [Example 8, 6-({8-[2-Hydroxy-2-(6-methoxy-[1,5]-naphthyridin-4-yl)-ethyl]-8-aza-bicyclo[3.2.1]oct-3-ylamino}-methyl)-4H-benzo[1,4]oxazin-3-one] | ≤ 2
5 | COc1ccc2nccc(C(O)CN3C4CCC3CC(NCc3ccc5c(c3)OCO5)C4)c2n1 (single isomer, unassigned) [Example 9, 2-{3-[(Benzo[1,3]dioxol-5-ylmethyl)-amino]-8-aza-bicyclo[3.2.1]oct-8-yl}-1-(6-methoxy-[1,5]-naphthyridin-4-yl)-ethanol] | ≤ 2
6 | COc1ccc2nccc(C(O)CN3C4CCC3CC(NCc3ccc5c(c3)OCCO5)C4)c2n1 (single isomer, unassigned) [Example 10, 2-{3-[(2,3-Dihydro-benzo[1,4]dioxin-6-ylmethyl)-amino]-8-aza-bicyclo[3.2.1]oct-8-yl}-1-(6-methoxy-[1,5]-naphthyridin-4-yl)-ethanol] | ≤ 2
7 | COc1ccc2nccc(C(O)CN3C4CCC3CC(NCc3ccc5nsnc5c3)C4)c2n1 (single isomer, unassigned) [Example 11, 2-{3-[(Benzo[1,2,5]thiadiazol-5-ylmethyl)-amino]-8-aza-bicyclo[3.2.1]oct-8-yl}-1-(6-methoxy-[1,5]-naphthyridin-4-yl)-ethanol] | ≤ 2
8 | COc1ccc2nccc(C(O)CN3C4CCC3CC(NCc3ccc5c(c3)NC(=O)CS5)C4)c2n1 (single isomer, unassigned) [Example 13, 6-({8-[2-Hydroxy-2-(6-methoxy-[1,5]-naphthyridin-4-yl)-ethyl]-8-aza-bicyclo[3.2.1]oct-3-ylamino}-methyl)-4H-benzo[1,4]thiazin-3-one] | ≤ 2
9 | COc1ccc2nccc(C(O)CN3C4CCC3CC(NC/C=C/c3ccccc3)C4)c2n1 (single isomer, unassigned) [Example 14, 1-(6-Methoxy-[1,5]-naphthyridin-4-yl)-2-[3-((E)-3-phenyl-allylamino)-8-aza-bicyclo[3.2.1]oct-8-yl]-ethanol] | ≤ 2
10 | COc1cnc2cccc(C(O)CN3C4CCC3CC(NC/C=C/c3ccccn3)C4)c2c1 (single isomer, unassigned) [Example 35, 1-(3-Methoxy-quinolin-5-yl)-2-[3-((E)-3-pyridin-2-yl-allylamino)-8-aza-bicyclo[3.2.1]oct-8-yl]-ethanol] | ≤ 2
11 | COc1cnc2cccc(C(O)CN3C4CCC3CC(NCc3ccc5c(c3)NC(=O)CS5)C4)c2c1 (single isomer, unassigned) [Example 36, 6-({8-[2-Hydroxy-2-(3-methoxy-quinolin-5-yl)-ethyl]-8-aza-bicyclo[3.2.1]oct-3-ylamino}-methyl)-4H-benzo[1,4]thiazin-3-one] | ≤ 2
12 | COc1cnc2cccc(C(O)CN3C4CCC3CC(NCc3ccc5c(n3)NC(=O)CS5)C4)c2c1 (single isomer, unassigned) [Example 37, 6-({8-[2-Hydroxy-2-(3-methoxy-quinolin-5-yl)-ethyl]-8-aza-bicyclo[3.2.1]oct-3-ylamino}-methyl)-4H-pyrido[3,2-b][1,4]thiazin-3-one] | ≤ 2
13 | COc1cnc2cccc(C(O)CN3CCCC(CNCc4ccc5nsnc5c4)C3)c2c1 (single isomer, unassigned) [Example 41, 2-(3-{[(Benzo[1,2,5]thiadiazol-5-ylmethyl)-amino]-methyl}-piperidin-1-yl)-1-(3-methoxy-quinolin-5-yl)-ethanol] | ≤ 2
14 | COc1cnc2cccc(C(O)CN3CCCC(CNCc4ccc5c(n4)NC(=O)CS5)C3)c2c1 (single isomer, unassigned) [Example 42, 6-[({1-[2-Hydroxy-2-(3-methoxy-quinolin-5-yl)-ethyl]-piperidin-3-ylmethyl}-amino)-methyl]-4H-pyrido[3,2-b][1,4]thiazin-3-one] | ≤ 2
15 | COc1cnc2cccc(C(O)CN3CCCC(CNCc4cc5c(cn4)OCCO5)C3)c2c1 (single isomer, unassigned) [Example 43, 2-(3-{[(2,3-Dihydro-[1,4]dioxino[2,3-c]pyridin-7-ylmethyl)-amino]-methyl}-piperidin-1-yl)-1-(3-methoxy-quinolin-5-yl)-ethanol] | ≤ 2
16 | COc1cnc2cccc(C(O)CN3CCCC(CNCc4ccc5c(c4)OCO5)C3)c2c1 (single isomer, unassigned) [Example 44, 2-(3-{[(Benzo[1,3]dioxol-5-ylmethyl)-amino]-methyl}-piperidin-1-yl)-1-(3-methoxy-quinolin-5-yl)-ethanol] | ≤ 2
17 | COc1cnc2cccc(C(O)CN3CCCC(CNCc4ccc5c(c4)NC(=O)CO5)C3)c2c1 (single isomer, unassigned) [Example 45, 6-[({1-[2-Hydroxy-2-(3-methoxy-quinolin-5-yl)-ethyl]-piperidin-3-ylmethyl}-amino)-methyl]-4H-benzo[1,4]oxazin-3-one] | ≤ 2
18 | COc1ccc2ncc(Cl)c(C(O)CN3C4CCC3CC(NCc3ccc5c(c3)NC(=O)CS5)C4)c2c1 (single isomer, unassigned) [Example 57, 6-({8-[2-(3-Chloro-6-methoxy-quinolin-4-yl)-2-hydroxy-ethyl]-8-aza-bicyclo[3.2.1]oct-3-ylamino}-methyl)-4H-benzo[1,4]thiazin-3-one] | ≤ 2
19 | COc1ccc2ncc(Cl)c(C(O)CN3C4CCC3CC(NCc3ccc5nsnc5c3)C4)c2c1 (single isomer, unassigned) [Example 58, 2-{3-[(Benzo[1,2,5]thiadiazol-5-ylmethyl)-amino]-8-aza-bicyclo[3.2.1]oct-8-yl}-1-(3-chloro-6-methoxy-quinolin-4-yl)-ethanol] | ≤ 2
20 | COc1ccc2ncc(Cl)c(C(O)CN3C4CCC3CC(NCc3ccc5nonc5c3)C4)c2c1 (single isomer, unassigned) [Example 59, 2-{3-[(Benzo[1,2,5]oxadiazol-5-ylmethyl)-amino]-8-aza-bicyclo[3.2.1]oct-8-yl}-1-(3-chloro-6-methoxy-quinolin-4-yl)-ethanol] | ≤ 2
21 | COc1ccc2ncc(Cl)c(C(O)CN3C4CCC3CC(NCc3cc5c(cc3F)SCC(=O)N5)C4)c2c1 (single isomer, unassigned) [Example 60, 6-({8-[2-(3-Chloro-6-methoxy-quinolin-4-yl)-2-hydroxy-ethyl]-8-aza-bicyclo[3.2.1]oct-3-ylamino}-methyl)-7-fluoro-4H-benzo[1,4]thiazin-3-one] | ≤ 2
